Test results from ChEMBL document CHEMBL1201862, “PubChem BioAssay data set” (2004).
Values joined by “and” are separate entries in the source; they are usually repeats but may differ in a detail not shown here. Equal entries are not always repeated. Active and inactive are the calls of the source.

Experiments:
Cytochrome P450 2C19 = Cytochrome P450 2C19 (Homo sapiens, UniProt P33261); experiment: Cytochrome panel assay with activity outcomes. Panel member name: p450-cyp2c19 Compounds with AC50 equal or less than 10 uM are considered active; type: functional
Cytochrome P450 2C19, sequence (P33261 whole entry): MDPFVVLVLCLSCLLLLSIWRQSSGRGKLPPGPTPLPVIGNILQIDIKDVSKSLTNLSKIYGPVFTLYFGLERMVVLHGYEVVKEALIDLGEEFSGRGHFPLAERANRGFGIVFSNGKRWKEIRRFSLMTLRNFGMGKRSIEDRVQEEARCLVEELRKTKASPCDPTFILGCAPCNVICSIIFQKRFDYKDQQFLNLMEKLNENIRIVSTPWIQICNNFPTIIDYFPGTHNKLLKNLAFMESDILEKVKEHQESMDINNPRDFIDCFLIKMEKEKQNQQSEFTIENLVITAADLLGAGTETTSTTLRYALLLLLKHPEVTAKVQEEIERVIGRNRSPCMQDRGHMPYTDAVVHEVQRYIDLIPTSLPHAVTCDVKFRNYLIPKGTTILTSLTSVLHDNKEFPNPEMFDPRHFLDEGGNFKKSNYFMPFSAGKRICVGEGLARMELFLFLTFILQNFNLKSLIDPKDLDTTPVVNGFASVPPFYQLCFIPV

[1] = Luminescence Cell-Based Dose Response HTS to Identify Activators of Luciferase Translation or Activity in H4 […] Cells. [Related pubchem assays: 1829 (Project Summary), 1814 (Primary HTS)]; type: functional
H4 = experiment: Luminescence Cell-Based Dose Response HTS to Identify Activators of 5'UTR Stem-Loop Driven Prion Protein mRNA Translation in H4 Neuroglioblastoma Cells. [Related pubchem assays: 1829 (Project Summary), 1814 (Primary HTS)]; type: functional; details: Homo sapiens
[2] = Luminescence Cell-Based Dose Confirmation HTS to Identify Activators of 5'UTR Stem-Loop Driven Alpha-Synuclein mRNA Translation in H4 Neuroglioblastoma Cells. [Related pubchem assays: 1829 (Project Summary), 1814 (Primary HTS)]; type: functional
Cytochrome P450 1A2 = molecular target: T1, Cytochrome P450 1A2 (Homo sapiens, UniProt P05177);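 also: PubChem cytochrome P450 panel assay, CYP1A2 panel member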
T1 sequence (P05177 whole entry): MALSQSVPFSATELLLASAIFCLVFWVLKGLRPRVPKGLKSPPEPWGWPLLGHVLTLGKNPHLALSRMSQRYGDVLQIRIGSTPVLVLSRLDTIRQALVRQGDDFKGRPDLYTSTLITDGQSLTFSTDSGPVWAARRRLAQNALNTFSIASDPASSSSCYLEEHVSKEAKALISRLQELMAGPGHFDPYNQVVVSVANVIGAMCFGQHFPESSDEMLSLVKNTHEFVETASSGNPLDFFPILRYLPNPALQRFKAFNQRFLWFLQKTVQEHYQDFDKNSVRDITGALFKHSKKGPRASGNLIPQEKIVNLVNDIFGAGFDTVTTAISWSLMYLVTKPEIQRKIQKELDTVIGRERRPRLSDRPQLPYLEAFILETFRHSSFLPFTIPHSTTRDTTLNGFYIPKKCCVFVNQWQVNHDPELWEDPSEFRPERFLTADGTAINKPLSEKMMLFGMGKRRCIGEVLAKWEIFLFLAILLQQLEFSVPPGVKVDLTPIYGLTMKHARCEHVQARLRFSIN

Cytochrome P450 2C9 = Cytochrome P450 2C9 (Homo sapiens, UniProt P11712)
Cytochrome P450 2C9, sequence (P11712 whole entry): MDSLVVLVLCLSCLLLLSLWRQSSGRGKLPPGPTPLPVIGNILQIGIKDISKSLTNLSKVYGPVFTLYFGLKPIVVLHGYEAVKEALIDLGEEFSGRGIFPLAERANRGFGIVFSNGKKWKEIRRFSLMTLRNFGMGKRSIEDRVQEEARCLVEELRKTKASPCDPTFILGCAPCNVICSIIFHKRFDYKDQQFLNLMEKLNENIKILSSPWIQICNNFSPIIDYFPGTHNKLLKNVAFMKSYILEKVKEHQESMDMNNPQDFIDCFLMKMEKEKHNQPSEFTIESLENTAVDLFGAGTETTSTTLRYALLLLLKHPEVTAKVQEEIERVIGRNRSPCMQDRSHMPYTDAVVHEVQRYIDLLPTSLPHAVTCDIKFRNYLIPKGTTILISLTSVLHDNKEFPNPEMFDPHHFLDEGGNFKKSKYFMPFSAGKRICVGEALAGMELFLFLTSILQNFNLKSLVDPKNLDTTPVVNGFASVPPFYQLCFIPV

[3] = molecular target: T2, Corticotropin-releasing factor receptor 2/Corticotropin-releasing factor-binding protein (Homo sapiens, UniProt P24387+Q13324); experiment: activators of CRF receptor 2 with binding protein – uHTS hits, confirmation (AID 602473); type: functional; details: read-out: EC50_Mean
T2 sequence (Q13324 whole entry): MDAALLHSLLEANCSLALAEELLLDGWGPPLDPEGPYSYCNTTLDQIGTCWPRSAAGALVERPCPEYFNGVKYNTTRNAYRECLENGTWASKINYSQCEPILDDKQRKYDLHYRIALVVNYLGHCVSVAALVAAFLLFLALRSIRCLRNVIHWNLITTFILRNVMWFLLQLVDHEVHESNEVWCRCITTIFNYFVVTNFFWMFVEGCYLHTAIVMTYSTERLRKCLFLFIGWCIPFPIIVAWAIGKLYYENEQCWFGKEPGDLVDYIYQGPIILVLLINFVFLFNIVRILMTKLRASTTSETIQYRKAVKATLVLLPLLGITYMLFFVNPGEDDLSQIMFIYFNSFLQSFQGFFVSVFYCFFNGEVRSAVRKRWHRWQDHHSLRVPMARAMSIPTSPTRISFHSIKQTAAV
T2 sequence (P24387 whole entry): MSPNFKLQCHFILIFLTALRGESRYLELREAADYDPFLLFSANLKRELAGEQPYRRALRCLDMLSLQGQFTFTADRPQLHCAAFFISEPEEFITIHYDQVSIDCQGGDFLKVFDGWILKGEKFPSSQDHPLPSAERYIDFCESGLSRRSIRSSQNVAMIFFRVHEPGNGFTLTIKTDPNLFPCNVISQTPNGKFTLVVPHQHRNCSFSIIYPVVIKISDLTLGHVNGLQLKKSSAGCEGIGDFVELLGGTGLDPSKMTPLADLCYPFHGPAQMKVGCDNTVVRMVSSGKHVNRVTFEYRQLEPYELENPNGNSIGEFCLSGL

[4] = NIH3T3 cell viability loss – ATP luminescence, mouse fibroblasts, counter-screen, dose response (AID 2010); type: functional, cell-based;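 also: cells exposed to compound for about 90 hours before reading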
[5] = Trypanosoma cruzi growth suppression in host cells – NIH3T3 host cells, beta-gal luminescence, confirmation (AID 2044); type: functional, cell-based;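 also: intracellular parasites grown in NIH/3T3 mouse fibroblasts as host cells; luminescent beta-galactosidase reporter signal from transgenic T. cruzi replicating inside host cells; inhibitors lower the luminescence signal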

## CCOCCCN1CC(C(=O)NCCc2ccc(C)cc2)CC1=O (stereo not drawn)
Cytochrome P450 2C19; read-out: AC50
  AC50: 25.1 µM (inconclusive)

## COC(=O)Cn1ncn2c(cc3oc(C)cc32)c1=O
[1]
  EC50: 56 µM (active)
H4
  EC50: 14.7 µM (active)
[2]
  EC50: 2.68 µM (active)

## NC(=O)N/N=C\c1ccc([N+](=O)[O-])o1
Cytochrome P450 1A2
  AC50: 12.6 µM (inconclusive)

## CC(=O)c1ccc(S(=O)(=O)N(Cc2cc3cc4c(cc3nc2O)OCCO4)CC2CCCO2)cc1 (stereo not drawn)
[1]
  EC50: 6.68 µM (active)
H4
  EC50: 26.3 µM (active)
[2]
  EC50: 13.6 µM (active)

## COc1ccc(C(=O)NCCn2ccc3ccccc32)cc1
[1]
  EC50: 0.132 µM (active)
H4
  EC50: 0.488 µM (active)
[2]
  EC50: 0.185 µM (active)

## Cc1ccc(-n2c(=O)[nH]cc(C(=O)N3CCc4ccccc43)c2=O)cc1
Cytochrome P450 2C9
  AC50: 1 µM (inconclusive)

## COc1ccc(C2=CC(c3cccc(OC)c3)n3nnnc3N2)cc1 (stereo not drawn)
[3]
  EC50: > 53 µM (inactive)

## O=C(N/N=C/c1ccc([N+](=O)[O-])cc1)c1ccc(COc2ccccc2-c2ccccc2)cc1
[4]
  EC50: > 30 µM (not active)
[5]
  EC50: 1.55 µM (active)

## COc1cc(=O)n(C)c2c(OC[C@@H](O)C(C)(C)O)cccc12
Cytochrome P450 1A2
  AC50: 20 µM (inconclusive) and 12.6 µM (inconclusive)

## CN1CCN(NC(=O)Nc2cccc(Cl)c2Cl)CC1
[4]
  EC50: > 60 µM (not active)
[5]
  EC50: 0.184 µM (active)

## COc1ccc(N2C(=O)CCC(C(=O)Nc3ccccn3)C2c2ccc(OC)c(OC)c2)cc1 (stereo not drawn)
Cytochrome P450 2C9
  AC50: 3.16 µM (inconclusive)

## Cc1ccc(NCc2ccccc2)cc1 [N-BENZYL-4-METHYLANILINE]
[4]
  EC50: > 60 µM (not active)
[5]
  EC50: 5.25 µM (active)

## O=c1c2c3c(sc2nc2n1N=C(c1cccs1)CS2)CCCC3
H4
  EC50: 0.118 µM (active)

## COc1cc(/C=N/NC2=NC(=O)C(CC(=O)O)S2)ccc1OCc1cccc(Cl)c1 (stereo not drawn)
[1]
  EC50: 10.1 µM (active)
H4
  EC50: 19.7 µM (active)
[2]
  EC50: 6.12 µM (active)

## CN(Cc1ccco1)c1ncnc2ccc(-c3ccc4c(c3)OCO4)cc12
Cytochrome P450 2C9
  AC50: 1.26 µM (inconclusive)

## Cc1ccc(NC(=O)C2CCN(c3cnccn3)CC2)cc1
[4]
  EC50: > 60 µM (not active)
[5]
  EC50: 0.9 µM (active)

## O=C(Nc1ncc(S(=O)(=O)c2ccc([N+](=O)[O-])cc2)s1)c1ccccc1F
[3]
  EC50: 4.81 µM (active)

## O=C(c1ccc(Cl)cc1)C1CCCN(Cc2cccn2-c2cccnc2)C1 (stereo not drawn)
[4]
  EC50: > 60 µM (not active)
[5]
  EC50: 2.58 µM (active)

## Cn1cc(-c2nc3cnc(Oc4ccccc4)nc3n(C)c2=O)c2ccccc21
Cytochrome P450 1A2
  AC50: 12.6 µM (inconclusive)

## CCCNC(=O)OC[C@@H]1O[C@H](CCO/N=C(\C)CCC(=O)OC[C@@H]2O[C@H](c3ccccc3)C=C[C@@H]2Oc2ccc(OC)cc2)C=C[C@@H]1Oc1ccc(OC)cc1
Cytochrome P450 2C19; read-out: AC50
  AC50: 0.0794 µM (inconclusive)
Cytochrome P450 2C9
  AC50: 3.98 µM (inconclusive)

## Cc1cccc(C)c1N1CCN(S(=O)(=O)N2CCCCC2)CC1
[3]
  EC50: 5.58 µM (active)

## Cc1cc(C)c(C(=O)Cn2cnc3cc([N+](=O)[O-])ccc3c2=O)cc1C
[4]
  EC50: > 60 µM (not active)
[5]
  EC50: 1.61 µM (active)

## COc1ccc(C(=O)NCC(=O)N2CCN(C(=O)c3ccco3)CC2)cc1
[3]
  EC50: > 53 µM (inactive)

## Cc1cc(NS(=O)(=O)c2ccc(NC(=O)c3cccc(OC(F)F)c3)cc2)nc(C)n1
[3]
  EC50: > 53 µM (inactive)

## CCCc1cc2c(cc1NC(=O)c1ccccc1C)OCO2
Cytochrome P450 2C9
  AC50: 0.0562 µM (inconclusive)

## COc1cccc2nc(O)c(-c3ccccc3)cc12
[1]
  EC50: 8.86 µM (active)
[2]
  EC50: 9.22 µM (active)

## CCN1C(=S)SC(=O)C1=C1C=C(C)N(CCO)C(C)=C1
[2]
  EC50: 0.102 µM (active)

## O=C(CCc1nnc(C2CCCCC2)o1)N1CCN(c2ccccc2F)CC1
[1]
  EC50: 11.8 µM (active)
[2]
  EC50: 9.13 µM (active)

## CCOC(=O)CSc1nc(N2CCOCC2)c2c(c1C#N)CC(C)(C)N(C)C2
[3]
  EC50: > 53 µM (inactive)

## COc1ccc(Cn2nnnc2C(c2ccccn2)N2CCN(c3cc(Cl)ccc3C)CC2)cc1 (stereo not drawn)
[4]
  EC50: > 60 µM (not active)
[5]
  EC50: 2.04 µM (active)

## C=CC(=O)NC(C)(C)Cc1ccccc1
Cytochrome P450 2C9
  AC50: 10 µM (inconclusive)

## CCOc1ccc2nc(O)c(CN(CCc3ccccc3)C(=O)N3CCOCC3)cc2c1
Cytochrome P450 1A2
  AC50: 17.8 µM (inconclusive)

## Cc1cc(C)n(CCc2nc(-c3cc4ccccc4o3)cs2)n1
[1]
  EC50: 9.04 µM (active)
H4
  EC50: 60.2 µM (active)
[2]
  EC50: 7.17 µM (active)

## Cc1nnc(O)n1-c1cccc(C(F)(F)F)c1
Cytochrome P450 1A2
  AC50: 5.62 µM (inconclusive)

## CC1(C)CN=C(N(Cc2ccccc2)C(=O)Nc2ccccc2)S1
[1]
  EC50: 13.1 µM (active)
H4
  EC50: 18.8 µM (active)
[2]
  EC50: 12.5 µM (active)

## O=C(c1ccc2nc3ccc(Cl)cc3c(=O)n2c1)N1CCOCC1
Cytochrome P450 1A2
  AC50: 14.1 µM (inconclusive)

## O=C(CCl)NN1C(=O)NC(c2ccccc2)(c2ccccc2)C1=O
[1]
  EC50: > 120 µM (not active)
H4
  EC50: > 120 µM (not active)
[2]
  EC50: 13.1 µM (active)

## COc1ccc(N(CC(=O)O)N=O)cc1
Cytochrome P450 1A2
  AC50: 0.0251 µM (inconclusive)
Cytochrome P450 2C19
  AC50: inconclusive

## COc1ccccc1CNc1ccnc(-c2ccoc2)n1
Cytochrome P450 2C9
  AC50: 1.26 µM (inconclusive)

## Cc1nc2ncnn2c(C)c1CCC(=O)NC(C)c1ccc2c(c1)OCCO2 (stereo not drawn)
Cytochrome P450 2C19; read-out: AC50
  AC50: 8.91 µM (inconclusive)

## COc1ccc([N+](=O)[O-])c2c1CCN2C(=O)CC[C@H](N)C(=O)O
Cytochrome P450 1A2
  AC50: 31.6 µM (inconclusive)

## O=[N+]([O-])c1ccc(-[n+]2c(-c3ccccc3)cc(-c3ccccc3)cc2-c2ccccc2)cc1.[O-][Cl+3]([O-])([O-])[O-]
[4]
  EC50: > 60 µM (not active)
[3]
  EC50: 5.02 µM (active)
[5]
  EC50: 0.264 µM (active)

## Cc1ccc(-c2ccc(CCC(=O)O)o2)cc1
Cytochrome P450 1A2
  AC50: 25.1 µM (inconclusive)

## Cc1c(NC2=N/C(=N\C(=O)c3cccs3)c3ccccc32)c(=O)n(-c2ccccc2)n1C
[3]
  EC50: 5.98 µM (active)

## O=C(/C=C/c1ccco1)NCCc1ccccc1
[1]
  EC50: 14.5 µM (active)
H4
  EC50: > 120 µM (not active)
[2]
  EC50: 10.9 µM (active)

## CCOc1ccc(NC(=O)c2ccc(Br)o2)c([N+](=O)[O-])c1
Cytochrome P450 1A2
  AC50: 3.55 µM (inconclusive)

## COc1ccc(N(CC(=O)NCCC2=CCCCC2)S(=O)(=O)c2ccc(C)cc2)cc1
[4]
  EC50: > 30 µM (not active)
[5]
  EC50: 2.31 µM (active)

## Cc1cccc2c1OCC/C2=N\NC(=O)COc1ccccc1Cl
Cytochrome P450 2C19; read-out: AC50
  AC50: 0.708 µM (inconclusive)

## Cc1c(C)n(CCCN(C)C)c2ncnc(NCc3ccccc3)c12
[4]
  EC50: > 60 µM (not active)
[5]
  EC50: 0.911 µM (active)

## Fc1ccccc1OCCSc1[nH]cnc2ncnc1-2
[1]
  EC50: 13 µM (active)
H4
  EC50: 14.9 µM (active)
[2]
  EC50: > 120 µM (not active)

## O=C1C=C(c2ccc3[nH]ccc3c2)CCC1
[1]
  EC50: 46.4 µM (active)
H4
  EC50: 9.94 µM (active)
[2]
  EC50: 16 µM (active)

## COc1ccc(CN2CCn3ncc(C(=O)Nc4ccccc4)c3C2=O)cc1
[1]
  EC50: 66.6 µM (active)
H4
  EC50: 18.9 µM (inconclusive)
[2]
  EC50: 14.2 µM (active)

## CCNc1ncc2nc(-c3cccs3)c(=O)n(-c3ccccc3)c2n1
Cytochrome P450 1A2
  AC50: 1.58 µM (inconclusive)

## CN1CCc2c(sc3c2C(=O)NC(c2cccc(OC(=O)c4cccs4)c2)N3)C1 (stereo not drawn)
[1]
  EC50: 8.11 µM (active)
H4
  EC50: 40 µM (active)
[2]
  EC50: 6.46 µM (active)
